Reference: patent US4324786A, “Pyrido[2,3-e]-as-triazine derivatives and pharmaceutical compositions” (Egyt Gyogyszervegyeszeti Gyar, priority 1979, dated 1982)

What was measured:
in vivo = settings: mouse, mice, oral
Protocol: The toxicity was determined on mice after oral adminstration.

mice [1] = test: tetrabenazine antagonizing effect (inhibition of ptosis provoked by tetrabenazine) on mice, method of Brodie; format: in vivo; settings: oral
mice [2] = test: motility inhibiting effect on mice, method of Borsy et al.; format: in vivo; settings: for ED50: Mus musculus
Protocol: The motility inhibiting effects of the new compounds were tested on mice by the method of Borsy et al. [Int. Pharmacodyn. […] The compounds to be tested were administered orally to the animals.

mice [3] = test: animal or person; format: in vivo; settings: potentiation of the toxicity of yohimbine, oral; for ED50: Mus musculus
Protocol: The ability of the compounds in potentiating the toxicity of yohimbine was tested on mice by the method of Quinton [Brit. J. Pharmacol. 21, 51 (1963)]. The compounds were administered orally to the animals.

rats = test: antiphlogistic effect on rats, method of Winter; format: in vivo; settings: oral; for ED50: Rattus norvegicus
Protocol: The antiphlogistic effects of the new compounds were determined on rats by the method of Winter [Proc. Soc. Exp. Biol. Med. 111, 544 (1962)]. The compounds were administered orally to the animals.

mice [4] = test: analgesic effect on mice, method of Newbould; format: in vivo; settings: oral; for ED50: Mus musculus
Protocol: The analgesic effects of the new compounds were tested on mice after oral administration, as described by Newbould [Brit.

mice [5] = test: narcosis potentiating effect on mice, method of Kaergaard; settings: for ED50: Mus musculus, po; for Therapeutical index: narcosis potentiating effect, mice, oral
Protocol: The narcosis potentiating effects was tested on mice according to the method of Kaergaard [Arch. […] The compounds under examination were administered orally to the animals.

[6] = motility inhibiting effect, mice, oral

Row | Structure (SMILES) | LD50 (in vivo) | Therapeutical index (mice [1]) | Therapeutical index (mice [2]; [6]) | ED50 (mice [3]) | Therapeutical index (mice [3]) | ED50 (rats) | Therapeutical index (rats) | ED50 (mice [4]) | Therapeutical index (mice [4]) | ED50 (mice [5]) | Therapeutical index (mice [5]) | ED50 (mice [1]; Mus musculus) | ED50 (mice [2]; motility inhibiting effect, mice, oral, read-out: ED50) | ED50 (mice [2]; po)
1 | CCC(=O)N1C(N2CCOCC2)=Nc2ncccc2N1C(=O)CC [Example 1, 3-morpholino-1,2-dipropionyl-1,2-dihydro-pyrido[2,3-e]-as-triazine] | 1600 mg/kg | 5 | 5 | 320 mg/kg | 5 | 300 mg/kg | 5.3 | 300 mg/kg | 5.3 | 54 mg/kg | 29.6 |  |  | 
2 | CCC(=O)N1NC(N(C(C)C)C(C)C)=Nc2ncccc21 [Example 2, 3-diisopropylamino-1-propionyl-1,2-dihydro-pyrido[2,3-e]-as-triazine] | 2000 mg/kg | 13.3 | 8 | 140 mg/kg | 14.3 | 450 mg/kg | 4.4 | 350 mg/kg | 5.7 | 40 mg/kg | 50 | 150 mg/kg | 250 mg/kg | 
3 | CCCC(C)(COC(N)=O)COC(N)=O [Meprobamate, reference compound] |  |  | 4.1 |  |  |  |  |  |  | 250 mg/kg | 4.2 |  |  | 270 mg/kg
4 | CC(=O)Nc1ccc(O)cc1 [Paracetamol, reference compound] |  |  |  |  |  |  |  | 180 mg/kg |  |  |  |  |  | 
